From publication PMC8395285, “Novel 2-(Adamantan-1-ylamino)Thiazol-4(5H)-One Derivatives and Their Inhibitory Activity towards 11β-HSD1—Synthesis, Molecular Docking and In Vitro Studies” (International Journal of Molecular Sciences, 2021)

Key:
11β-HSD2 = molecular target: T1, 11β-HSD2 (Homo sapiens, UniProt P80365); experiment: Inhibition of 11β-HSD2 (cortisol to cortisone, human microsomes, cortisol ELISA); format: biochemical; details: 10 µM compound, 2.5 h at 37 °C
T1 construct: Human liver microsomes were used as a source of 11β-HSD2 enzyme; tissue XenoTech Lot No. 1710160; host or cells: human kidney microsomes, mixed gender (the method paragraph says human liver microsomes)
T1 sequence (P80365 1-405): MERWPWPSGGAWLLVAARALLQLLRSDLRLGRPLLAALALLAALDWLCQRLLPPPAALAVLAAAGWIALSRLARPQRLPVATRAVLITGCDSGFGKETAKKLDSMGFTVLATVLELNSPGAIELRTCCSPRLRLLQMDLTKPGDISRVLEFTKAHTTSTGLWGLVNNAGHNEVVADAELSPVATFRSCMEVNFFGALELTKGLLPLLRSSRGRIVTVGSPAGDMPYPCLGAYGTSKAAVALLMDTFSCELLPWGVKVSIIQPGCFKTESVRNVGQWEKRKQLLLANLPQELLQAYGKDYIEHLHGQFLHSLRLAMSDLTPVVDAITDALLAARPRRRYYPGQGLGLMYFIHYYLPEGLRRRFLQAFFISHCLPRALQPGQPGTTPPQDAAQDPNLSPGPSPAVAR
Description: […] […] The level of unreacted cortisol was measured by commercially available ELISA kit.
(§1) As a control, analogous tests without the addition of inhibitors were used. Half the inhibitory concentration (causing 50% reduction of cortisol or cortisone) was read from the chart.

11β-HSD1 = molecular target: T2, 11β-HSD1 (Homo sapiens, UniProt P28845); experiment: Inhibition of 11β-HSD1 (cortisone to cortisol, human liver microsomes, cortisol ELISA); format: biochemical; details: for inhibition at 10 µM: 10 µM compound, 2.5 h at 37 °C; for IC50: concentrations 0.625-10.0 µM, read from the chart
T2 construct: Human liver microsomes were used as a source of 11β-HSD1 enzyme; tissue XenoTech Lot No.1410013; host or cells: pooled human liver microsomes, mixed gender
T2 sequence (P28845 whole entry): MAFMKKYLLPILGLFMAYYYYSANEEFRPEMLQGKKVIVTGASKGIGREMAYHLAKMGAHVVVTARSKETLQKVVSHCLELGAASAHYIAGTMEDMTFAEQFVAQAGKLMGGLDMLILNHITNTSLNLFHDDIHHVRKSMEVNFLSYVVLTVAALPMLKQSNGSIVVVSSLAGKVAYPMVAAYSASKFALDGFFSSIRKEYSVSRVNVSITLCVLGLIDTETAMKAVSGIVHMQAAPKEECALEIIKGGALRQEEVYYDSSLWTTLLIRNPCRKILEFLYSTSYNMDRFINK
Description: To stop the reaction, 10 µL of a 100 µM solution of 18β-glycyrrhetinic acid in PBS was added. The level of cortisol obtained in the reaction was measured by commercially available ELISA kit.
as §1

inhibition at 10 µM (11β-HSD2) | melting point | inhibition at 10 µM (11β-HSD1) | IC50 (11β-HSD1) | Structure (SMILES)
29.8 ± 4.21% | 271 to 273 °C | 22.3 ± 5.31% | > 10 µM | O=C1CSC(NC23CC4CC(CC(C4)C2)C3)=N1 [3a, 2-(adamantan-1-ylamino)thiazol-4(5H)-one]
44.7 ± 4.19% | 265 to 267 °C | 62.1 ± 3.59% | 3.52 ± 0.19 µM | CC1SC(NC23CC4CC(CC(C4)C2)C3)=NC1=O (stereo not drawn) [3b, 2-(adamantan-1-ylamino)-5-methylthiazol-4(5H)-one]
14.4 ± 1.16% | 257 to 259 °C | 69.2 ± 5.12% | 5.44 ± 0.32 µM | CCC1SC(NC23CC4CC(CC(C4)C2)C3)=NC1=O (stereo not drawn) [3c, 2-(adamantan-1-ylamino)-5-ethylthiazol-4(5H)-one]
28.9 ± 4.11% | 247 to 249 °C | 72.4 ± 2.63% | 3.23 ± 0.26 µM | CCCC1SC(NC23CC4CC(CC(C4)C2)C3)=NC1=O (stereo not drawn) [3d, 2-(adamantan-1-ylamino)-5-propylthiazol-4(5H)-one]
16.4 ± 2.06% | 239 to 241 °C | 76.4 ± 2.55% | 1.19 ± 0.21 µM | CC(C)C1SC(NC23CC4CC(CC(C4)C2)C3)=NC1=O (stereo not drawn) [3e, 2-(adamantan-1-ylamino)-5-isopropylthiazol-4(5H)-one]
24.5 ± 3.24% | 208 to 210 °C | 66 ± 1.12% | 6.11 ± 0.62 µM | CC1(C)SC(NC23CC4CC(CC(C4)C2)C3)=NC1=O [3f, 2-(adamantan-1-ylamino)-5,5-dimethylthiazol-4(5H)-one]
18.3 ± 3.18% |  | 46.3 ± 5.53% | > 10 µM | O=C1N=C(NC23CC4CC(CC(C4)C2)C3)SC1c1ccccc1 (stereo not drawn) [3g, 2-(adamantan-1-ylamino)-5-phenylthiazol-4(5H)-one]
41.8 ± 6.12% |  | 15.3 ± 0.49% | > 10 µM | O=C1N=C(NC23CC4CC(CC(C4)C2)C3)SC1c1ccc(Br)cc1 (stereo not drawn) [3h, 2-(adamantan-1-ylamino)-5-(4-bromophenyl)thiazol-4(5H)-one]
> 44% | 268 to 270 °C | 82.8 ± 2.05% | 0.31 ± 0.05 µM | O=C1N=C(NC23CC4CC(CC(C4)C2)C3)SC12CCCCC2 [3i, 2-(adamantan-1-ylamino)-1-thia-3-azaspiro [4.5]dec-2-en-4-one]
41.4 ± 4.22% | 265 to 266 °C | 74.1 ± 2.85% | 3.32 ± 0.24 µM | O=C1N=C(NC23CC4CC(CC(C4)C2)C3)SC12CCC2 [3j, 6-(adamantan-1-ylamino)-5-thia-7-azaspiro[3.4]oct-6-en-8-one]
 |  | 84.8 ± 6.23% |  | CC1(C)[C@@H](OC(=O)CCC(=O)O)CC[C@]2(C)[C@H]3C(=O)C=C4[C@@H]5C[C@@](C)(C(=O)O)CC[C@]5(C)CC[C@@]4(C)[C@]3(C)CC[C@@H]12 [carbenoxolone, reference compound]
